# Source: a melting point compilation (Tetko et al.)
row,SMILES,melting point [°C]
1,[O-][P+](c1ccccc1)(c1ccccc1)C1C=C(c2ccccc2)OC(c2ccccc2)=C1,176
2,COCCOCCOCCOC,-45
3,CC(C)C(Br)C(=O)NC(N)=O (configuration not stated),154
4,Sc1ncnc2c1cnn2-c1ccccc1,286 to 288
5,CC12CCC(C1(C)C)C(CC(Br)Cc1ccccc1)(C1(CC(Br)Cc3ccccc3)C(=O)C3(C)CCC1C3(C)C)C2=O (configuration not stated),215
6,Clc1cc(Br)ccc1Br,40
7,N=CN,81
8,Cc1cccc(NN=C2C(=O)NN=C2C(F)(F)F)c1,155
9,O=C(O)c1cccnc1Br,254
10,Nc1cccnc1Oc1ccccc1F,87 to 89
11,O=C(O)Cn1c(CN2CCOCC2)nc2ccccc21,214 to 218
12,Cc1cccc2ccccc12,34
13,O=[N+]([O-])c1ccc(C(O)CNCc2ccccc2)cc1 (configuration not stated),133 to 134
14,CN(C)c1ccc(/C=C(/C#N)C(N)=S)cc1,189
15,CNc1ccccc1C(=O)O,180
16,CN1CCN(c2cccc(C(=O)O)c2)CC1,187 to 190
17,CN(CC(=O)O)C(=O)c1ccccc1,101 to 105
18,N#Cc1cccnc1N1CCNCC1,76 to 78
19,O=C(CBr)c1ccc(F)c(F)c1,28 to 30
20,Nc1ncc(C(F)(F)F)cc1Br,100
21,COC(=O)C1=C(C)NC(=O)N(C=O)C1c1ccccc1 (configuration not stated),236
22,NC(CCC(=O)O)C(=O)O (configuration not stated),205
23,O=C1c2ccccc2CC2CCCCN12 (configuration not stated),97

row,SMILES,melting point [°C]
1,CCSc1nnc(NC(=O)C(F)(F)C(F)(F)C(F)(F)C(F)(F)C(F)(F)C(F)(F)C(F)(F)C(F)(F)F)s1,131
2,O=C1NC(=S)NC(=O)C1=Cc1ccc(Br)o1,215
3,CCC(=O)c1c(O)cc(O)cc1O,176
4,O=C1c2ccccc2C(=O)N1Cl,185 to 189
5,CCCCC(CC)COC(=O)C=CC(=O)OCC(CC)CCCC (configuration not stated),-10
6,c1cc(OCC2CO2)ccc1OCC1CO1 (configuration not stated),111
7,O=Cc1ccc(Cl)c(F)c1,47
8,O=[N+]([O-])c1ccc2c(c1)OCCOCCOc1ccccc1OCCOCCO2,190 to 195
9,CCCCCCSc1nc2ccc(NC(=O)COc3ccc(Cl)cc3Cl)cc2s1,105
10,N#Cc1c(OCC(F)(F)F)cccc1OCC(F)(F)F,116
11,COC(=O)c1ccc([N+](=O)[O-])cc1C(=O)OC,67
12,Cc1c(-c2ccccc2)[nH]c2ccccc12,91.5
13,CCOc1nc(NC)nc(NC(=O)NS(=O)(=O)c2ccccc2C(=O)OC)n1,194
14,O=C(CBr)c1ccc(-c2ccccn2)s1,123 to 126
15,COC(=O)c1scc(C)c1N,86 to 87
16,Nc1ccc2c(c1)OCCO2,28
17,CC(=O)N1c2cc3[nH]c(C)cc3cc2CC1C (configuration not stated),275
18,Cc1cccc(C)c1NC(=O)CN(CC(=O)O)CC(=O)O,213 to 216
19,Cc1nc(/C(C#N)=C/c2ccco2)sc1/N=N/c1c(Cl)cc(Cl)cc1Cl,156
20,Cc1oc(-c2ccccc2)nc1C(=O)O,182 to 183
21,ON=C(c1cccs1)c1cccs1,134 to 136
22,COc1ccc(SCC(=O)O)cc1OC,102
23,CC1(C)C=[N+]([O-])C(C)(C)N1O,160 to 163

row,SMILES,melting point [°C]
1,CN(C)c1ccc(C=CC=O)cc1,140
2,COC(C)=O,-98
3,CCP(=O)(CC)CC,52 to 53
4,NNc1ccc(F)c(Cl)c1,74
5,Cc1ccc(Cl)c(C(=O)O)c1,148 to 150
6,C[Si](C)(C)OS(=O)(=O)O[Si](C)(C)C,47 to 50
7,Cc1cnc(Cl)c([N+](=O)[O-])c1,46 to 50
8,Cc1c(C)c(C#N)c2ccccc2c1C#N,261 to 264
9,O=[N+]([O-])CCO,-80
10,CC1CS1 (configuration not stated),-91
11,Nc1cccc(CN2CCCC2)c1,72 to 74
12,NC(=S)c1ccccc1Br,83 to 85
13,O=C(c1ccccc1)C1SC(=S)N(c2ccccc2)C1=O (configuration not stated),159
14,CCOC(=O)Cc1nn(CC(N)=S)c(=O)c2ccccc12,150 to 152
15,Cc1noc(-c2ccc(C(=O)Cl)cc2)n1,115 to 117
16,N#Cc1cc(S(=O)(=O)Cl)ccc1F,69
17,CSC(S)=Nc1ccccc1C,151 to 153
18,O=Cc1c(-c2ccccc2)nc2n1CCS2,127 to 128
19,O=C(C1=NOC2C(=O)N(c3cccc([N+](=O)[O-])c3)C(=O)C12)c1ccccc1 (configuration not stated),173
20,O=Cc1cc2ccccc2n1S(=O)(=O)c1ccccc1,111 to 112
21,O=C(Nc1cccc(Cl)c1)C(C(F)(F)F)C(F)(F)F,154
22,O=C(O)C1(c2ccc(F)cc2)CCCC1,160 to 165
23,CC(=O)CCc1ccccc1,-13

row,SMILES,melting point [°C]
1,Brc1ccc2cc(Br)ccc2c1,165
2,N#Cc1c(N)sc2c1CCCC2,142
3,O=C(O)c1c(O)cccc1F,160
4,Cc1ccc(O)c(C(=O)CC(=O)c2ccccc2)c1,92 to 94
5,COc1ccc(C#N)cc1[N+](=O)[O-],148 to 151
6,OCc1cccc2ccsc12,76.5 to 78
7,Nc1ccncc1[N+](=O)[O-],203
8,CCCCNCCO,-2
9,CC12CCC(O)CC1CCC1C2C(=O)CC2(C)C1CCC2(O)C(=O)CO (configuration not stated),213
10,CSc1nc(N)cc(N)n1,189 to 193
11,CC/C(=N/NC(N)=O)C1=CC2(C)CCC1C2(C)C (configuration not stated),196 to 197
12,O=C1C=C(NCc2ccncc2)C(=O)c2ccccc21,166
13,Cc1nn(-c2ccccc2)nc1C(=O)O,203
14,COc1cc(N)c(Cl)cc1C(=O)O,206 to 210
15,O[C@@H]1C#CCCCCC#C[C@@H](O)CC1,154
16,CCOC(=O)c1sc2ncccc2c1N,183 to 185
17,C=C(C)CCCCC,-90
18,Cn1c(=O)c(C2=Nc3ccccc3SC(c3cccs3)C2)c(O)c2ccccc21 (configuration not stated),224
19,CC(C)CC=NO,48.5
20,Cc1cccc(Br)c1[N+](=O)[O-],26 to 30
21,Nc1ccccc1C(=O)OCC=Cc1ccccc1,61
22,Cc1ccc(-c2ccc(C=CC(=O)c3ccccc3)o2)cc1,100 to 101
23,Cc1cc(/C=C/c2ccccc2N)c([N+](=O)[O-])cc1[N+](=O)[O-],175

row,SMILES,melting point [°C]
1,N#Cc1cccc(I)c1,40
2,COc1ccc(-c2cc(=O)c3c(O)cc(O)cc3o2)cc1,263
3,Oc1ccccc1C(O)c1ccccc1 (configuration not stated),88
4,O=C(O)c1cccc(Cn2cncn2)c1,209 to 210
5,Cn1ncc2c(NCCN)ncnc21,297
6,CCc1cc(Cc2cc(CC)c(N)c(CC)c2)cc(CC)c1N,88 to 91
7,Cn1nc2ccccc2c1C=O,75 to 77
8,Clc1nccc2ccc(Br)cc12,124
9,O=Cc1c(Cl)ccc([N+](=O)[O-])c1Cl,165 to 167
10,O=[N+]([O-])c1ccc(O)c2ncccc12,180
11,FC(Cl)C(F)(F)Cl (configuration not stated),-78
12,CC(=O)OC1C2=C(C(=O)C(O)=C(C(C)C)C2=O)C2(C)CCCC(C)(C)C2C1O (configuration not stated),216
13,Nc1cc(C(F)(F)F)ccn1,73
14,Cc1cc(Br)cc(Br)c1N,44 to 49
15,N#Cc1cccc(C(=O)Cc2cccc(Oc3ccccc3)c2)c1,63.7 to 65.5
16,Cc1nn(C)c2ncnc(N)c12,190
17,OC1OCCOC1O (configuration not stated),101
18,COc1cc(C(F)(F)F)nc2ccc(C)c([N+](=O)[O-])c12,181 to 183
19,COC(=O)c1ccc([N+](=O)[O-])cc1Cl,77 to 78
20,CC(C)(C)SC(C)(C)C,-9
21,O=c1[nH]c2c(c(=O)n1C1CCCCC1)CCC2,316
22,CC(=O)NC(N)=O,218
23,CSc1ccc(N=C=S)cc1,50

row,SMILES,melting point [°C]
1,O=c1[nH]cc(Cl)c(=O)[nH]1,300
2,Oc1ncnc2[nH]cnc12,250
3,Cc1cccc(OP(=O)(Oc2cccc(C)c2)Oc2cccc(C)c2)c1,25.5
4,Cc1ccccc1NC=O,62
5,CSc1ccc(I)cc1,40 to 42
6,COc1ccc(Br)c(C(=O)CC#N)c1,92 to 93
7,CC1NC(=O)C(C)NC1=O (configuration not stated),274 to 278
8,O=C(O)[C@@H]1CCN1,206 to 207
9,COc1cc(OC)c(C(C)=O)c(OC)c1,103
10,Nc1ccc(NC(=O)C(F)(F)F)cc1,118
11,CN(C)S(=O)N(C)C,31
12,C[C@H](O)CC[C@H](C)O,53
13,O=C1Cc2cc(Br)ccc2N1,219 to 221
14,Cn1cc(Br)c(C(=O)Cl)n1,131 to 133
15,CN(C)c1ccc(/C=C(\C(N)=O)c2nc3ccccc3s2)cc1,210
16,O=Nc1ccc(O)c(N=O)c1O,168
17,NCC1OC(OC2C(N)CC(N)C(O)C2OC2OC(CO)C(O)C2O)C(N)C(O)C1O (configuration not stated),194
18,CC1CC(OC(=O)C(O)c2ccccc2)CC(C)(C)N1C (configuration not stated),113
19,O=P(Oc1ccccc1)(Oc1ccccc1)Oc1noc2ccccc12,64 to 68
20,O=C(O)c1cc(F)c(F)c(F)c1F,88 to 89
21,Cc1nn(-c2cc(NS(C)(=O)=O)c(Cl)cc2Cl)c(=O)n1C(F)F,122
22,CC(C)(C)c1cc(O)cc(C(C)(C)C)c1,88
